In experiment [1] the test system is purified human FH. Kind of experiment: Factor H (FH) binding to gonococci by flow cytometry. It is filed as cell-based. The conditions noted are these: F62 ΔlgtD grown with 20 μg/mL CMP-NulO, human FH 20 μg/mL. How it is done: FIG. 1: CMP-KDN serves as a substrate for gonococcal LOS and incorporation of KDN on gonococcal lacto-N-neotetraose LOS enhances factor H (FH) binding. A. Incorporation of KDN by gonococci. Gonococcal strain F62 ΔlgtD (expresses lacto-N-neotetraose (LNnT) from Hepl) was grown in media containing CMP-KDN (20 μg/mL) and binding of mAb 3F11 was measured by flow cytometry. mAb 3F11 binds only to […] LNnT; substitution of the terminal Gal of LNnT, for example with a NulO, will decrease mAb 3F11 binding. Approximately 5×10^7 bacteria were incubated with mAb 3F11 tissue culture supernatants for 15 minutes at 37° C. Binding of mAb 3F11 was disclosed with anti-mouse IgM FITC (Sigma; dilution of 1:100). Bacteria grown in CMP-Neu5Ac or in media alone were used as positive and negative controls for sialylation, respectively. A representative histogram is shown in the upper panel. […] B. Factor H (FH) binding to gonococci grown in CMP-KDN. Approximately 5×10^7 bacteria grown in media alone (no sialic acid), media plus CMP-Neu5Ac (20 μg/mL; positive control for FH binding) or in media containing CMP-KDN (20 μg/mL) were incubated with purified human FH (20 μg/mL) in HBSS** for 15 minutes at 37° C. and bound FH was detected with affinity isolated goat anti-human FH followed by anti-goat IgG FITC (Sigma; 1:100 dilution). A representative histogram is shown in the upper panel. […]

Experiment [2] deals with N. gonorrhoeae H041. As to the kind of experiment: BALB/c mouse vaginal colonization model. It is filed as in vivo. The conditions noted are these: 10 μg intravaginally daily; Premarin treated BALB/c mice. As for the experimental part: FIG. 2: Female BALB/c mice 5-6 weeks of age (Jackson Laboratories) in the diestrus phase of the estrous cycle were started on treatment (that day) with 0.5 mg of Premarin (Pfizer) given subcutaneously on each of three days; −2, 0 and +2 days (before, the day of and after inoculation) to prolong the estrus phase of the cycle and promote susceptibility to N. gonorrhoeae infection. Antibiotics (vancomycin, colistin, neomycin, trimethoprim and streptomycin) that were ineffective against N. gonorrhoeae were also used to reduce competitive microflora. Mice (n=40) were then infected with 10^6 CFU of strain H041. Three groups of mice (n=10/group) were treated with 10 μg intravaginally daily (first dose was administered 30 minutes before the introduction of bacteria) with one of the following CMP-NulOs in normal saline: CMP-Leg5Ac7Ac, CMP-Neu5Ac9Az or CMP-KDN. A fourth group (n=10) was given saline (vehicle control). Vaginal swabs were obtained daily from each animal, serially diluted and plated on chocolate agar containing vancomycin, colistin, neomycin, trimethoprim and streptomycin (VCNTS) to quantify bacterial loads. A. Median time to clearance was estimated using Kaplan-Meier survival curves; the times to clearance were compared between groups using a log-rank test. P<0.0001 for the control versus each of the treatment groups. Time to clearance between each of the treatment groups was similar (P>0.05). B. The mean area under the curve (log10 CFU vs. time) was computed for each mouse to estimate the bacterial burden over time (cumulative infection); the means under the curves were compared between groups using the Kruskal-Wallis nonparametric rank sum test because distributions were skewed or kurtotic. Groups were compared using Dunn's multiple comparison test. ****, P<0.0001; **, P<0.01; *, P<0.05. The differences among the groups that received CMP-NulOs were not significant.
The mouse model experiments and statistical analysis were conducted as described in the art and in U.S. Pat. No. 9,765,106. […]

Entries after “also recorded” stand apart in the source; their conditions may differ.

With `Nc1ccn([C@@H]2O[C@H](COP(=O)(O)O[C@@]3(C(=O)O)CC(O)[C@@H](O)C([C@H](O)[C@H](O)CO)O3)C(O)C2O)c(=O)n1` (stereo partly drawn) [CMP-KDN, cytidine 5′-monophospho-3-deoxy-D-glycero-D-galacto-nonulosonic acid], the “fH binding to bacteria” value in experiment [1] is on record as “half of that observed for Neu5Ac”. The “attenuation of N. gonorrhoeae H041 infection” value in experiment [2] was “some efficacy; also recorded: significantly attenuated; also recorded: just as efficacious in an animal model of colonization”.

The record behind these values is patent publication US20210401863A1, “TREATMENT AND PREVENTION OF NEISSERIA GONORRHOEAE INFECTION USING CMP-ACTIVATED NONULOSONATE ANALOG COMPOUNDS” (NATIONAL RESEARCH COUNCIL OF CANADA, priority 2015, published 2021).
